Experiments:
[1] = system: NSCs of Fmr1 KO and wildtype mice; experiment: In vivo cell fate analysis of BrdU+ cells (NeuN, S100β); parameters: species or system mouse; conditions: 10 mg/kg, 5 injections, analyzed 4 weeks after last treatment
Experimental: (§1) All animal procedures were performed according to protocols approved by the University of Wisconsin-Madison Care and Use Committee. All mice were on C57B/L6 genetic background. The Fmr1 KO/Nestin-GFP mice (Fmr1−/y::Nestin-GFP) were created by crossing female Fmr1 heterozygous KO mice (Fmr1+/−) (59) with homozygous Nestin-GFP transgenic males (60). Generation of FMRP inducible conditional mutant mice (Fmr1loxP/y::Nestin-CreERT2::Rosa26-tdt) and tamoxifen injections to induce recombination were performed as described (12). To induce recombination, mice (6-weeks old) received Tamoxifen (Sigma-Aldrich) daily for 5 d (160 mg/kg) as described (12). Nutlin-3 (10 mg/kg) was given to 7-8 week-old mice or 20-week old mice through IP injections every other day for 5 injections and sacrificed at either 24 hours, 4 weeks, 12, or 20 weeks after the last injection. For NSC differentiation analysis, mice also received four BrdU injections (100 mg/kg) between day 2 and 3 of Nutlin-3 injections. To induce recombination in FMRP inducible conditional mutant mice (Fmr1^loxP/y::Nestin-CreER^T2::Rosa26-tdt) mice, mice 6-weeks old male mice received Tamoxifen (Sigma-Aldrich) daily for 5 days (160 mg kg-1 i.p., 30 mg ml^−1 in 10% ethanol mixed with sunflower oil, SigmaAldrich) based on a published procedure (13). BrdU (Sigma-Aldrich, B5002) was made in a concentration of 20 mg/mL in PBS. Nutlin-3 (Nt3, Cayman Chemical, 10004372) was made in a concentration of 100 mg/mL in dimethyl sulfoxide (DMSO).
Brain tissue processing and histological analysis of mouse brains were performed as described in our publications (11, 12, 61). Briefly mice were euthanized by IP injection of sodium pentobarbital and then transcardially perfused with saline followed by 4% PFA. Brains were dissected out, post-fixed overnight in 4% PFA, and equilibrated in 30% sucrose. 40 μm brain sections were generated using a sliding microtome and stored as floating sections in cryoprotectant solution (glycerol, ethylene glycol, and 0.1M phosphate buffer, pH 7.4, 1:1:2 by volume). We performed immunohistological analysis on 1-in-6 serial floating brain sections (240 μm apart). […]
Phenotypic analysis of tdT+ cells was performed as described 3,4. Briefly, at least 50 tdT+ cells in the DG were randomly selected, and their colocalization with cell-lineage markers (e.g., double labeling with GFAP) was determined using Nikon A1 confocal microscope and quantified using Image J software (NIH). […] Briefly, at least 50 BrdU+ cells in the DG were randomly selected, and the colocalization of BrdU with cell-lineage markers (NeuN or S100β) was determined using Nikon A1 confocal microscope and quantified using Image J software (NIH). […]

[2] = Overall health and body weight of treated mice; format: in vivo, mouse; conditions: wildtype and Fmr1 KO mice; Nutlin-3 10 mg/kg, 5 injections
Experimental: as §1, with “Nutlin-3 (Nt3, Cayman Chemical, 10004372) was made in a concentration of 100 mg/mL in dimethyl sulfoxide (DMSO).” left out

[3] = system: Fmr1 KO and wildtype NPCs; experiment: BrdU proliferation assay of cultured NPCs; format: cell-based, mouse
Experimental: We used only early passage cells (between passage 4 and 10) and only the same passage numbers of wildtype and Fmr1 KO cells. For each experiment, triplicate wells of cells were analyzed, and results were averaged as one data point (n=1). At least 3 independent biological replicates were used (n=3) for statistical analyses.
We used only early passage cells (between passage 4 and 10) and only the same passage numbers of wild type (WT) and Fmr1 KO cells. For each experiment, triplicate wells of cells were analyzed, and results were averaged as one data point (n=1). At least 3 independent experiments (n=3) were performed and used for statistical analyses for each analysis. To study cell proliferation, we dissociated neural stem cells with trypsin and plated them on poly-L-ornithine and laminin-coated 24 well plate (Scientific fisher, 87721) at a density of 100,000 cells per well in proliferation medium. At 20 h post-plating, 5 μM 5-bromo-2.′-deoxyuridine (BrdU, Sigma-Aldrich) was added into the culture medium for 6 h. NPCs were then washed with PBS and fixed with 4% paraformaldehyde for 30 min at room temperature, followed by immunohistochemical analysis. To detect BrdU incorporation, fixed cells were pretreated with 1M HCl for 30 min at 37° C., and then washed with borate buffer, pH 8.5, for 30 min. We then followed our standard immunohistochemistry protocol^10. BrdU incorporation assay was determined using an Operetta high content imaging system (PerkinElmer, Inc) and Harmony quantification software (PerkinElmer, Inc). The percentage of proliferating cells was defined as the number of BrdU-labeled cells divided by total DAPI-positive cells.
For proliferation assay in vitro, 1 μM MK2206 (Selleckchem, S1078) (AKT phosphorylation inhibitor), or 2 μM Nutlin-3 (Nt3, Selleckchem, 51061) (Mdm2 inhibitor), or 1 μM RG7112 (Selleckchem, S7030) (Mdm2 inhibitor) or YH239-EE (Selleckchem 57489) (4 μM) (Mdm2 inhibitor) was added to proliferating NPCs at 6 hours post-plating. Cells were then pulse labeled 18 hours later with 5 μM 5-bromo-2′-deoxyuridine (BrdU, Sigma-Aldrich, B5002) and incubated for 6 hours in the presence of inhibitor, followed by fixation, staining, and quantification.

[4] = system: Fmr1 KO and wildtype NPCs; experiment: Cell death analysis (PI/Hoechst, CellTiter-Glo viability) of NPCs; format: cell-based, mouse; conditions: 2 μM Nutlin-3
Description: Three different methods were used to assay cell death. Fluorescein isothiocyanate and propidium iodide (Annexin V-FITC Apoptosis Detection Kit, Sigma, #APOAF) were used to assess NSC apoptosis. Intact cells were Annexin V^−PI^−. Early and late apoptotic cells were Annexin V^+PI^− and Annexin V^+PI^+, respectively. Necrotic cells were Annexin V−PI+. The number of early apoptotic cells (Annexin V^+PI^−; Phase II) and late apoptotic cells (Annexin V^+PI^+, Phase I) were used to calculate the percentage of apoptotic cells. In a second method, propidium iodide (1 mg/mL) and […] (1 mM) were added to cultured cells for 15 min, followed by high content imaging analysis (Oppretta, GE) to quantify the percentage of Hoechst positive (all) cells that are PI positive (dead) cells. In the third method, Cell viability was measured using CellTiter-Glo Luminescent Cell Viability Assay (Promega). 2 μM Nutlin-3 (Nt3, Selleckchem, 51061) was added to proliferating aNPCs at 6 hours post-plating. Cells were then harvested 24 hours later with CellTiter-Glo buffer at room temperature. Signal intensity was immediately measured using a Glomax plate reader (Promega) according to manufacturer's instruction.

[5] = Open field activity test; format: in vivo, mouse; conditions: wildtype and Fmr1 KO mice; Nutlin-3 10 mg/kg, 5 injections
Experimental: as §1, with “To induce recombination in FMRP inducible conditional mutant mice (Fmr1^loxP/y::Nestin-CreER^T2::Rosa26-tdt) mice, mice 6-weeks old male mice received Tamoxifen (Sigma-Aldrich) daily for 5 days (160 mg kg-1 i.p., 30 mg ml^−1 in 10% ethanol mixed with sunflower oil, SigmaAldrich) based on a published procedure (13). BrdU (Sigma-Aldrich, B5002) was made in a concentration of 20 mg/mL in PBS. Nutlin-3 (Nt3, Cayman Chemical, 10004372) was made in a concentration of 100 mg/mL in dimethyl sulfoxide (DMSO).” left out
Mice were subjected to open field testing for evaluation of locomotor activity and general anxiety. Activity was recorded at 10-min intervals for total 30 min by means of a computer-operated tracking system (Omnitech Electronics Inc, USA) Total distance moved, and ratio of entry time into the Centre and periphery of arena were measured.

Question: Which results are given for `COc1ccc(C2=N[C@@H](c3ccc(Cl)cc3)[C@@H](c3ccc(Cl)cc3)N2C(=O)N2CCNC(=O)C2)c(OC(C)C)c1` [Nutlin-3]?
Answer: astroglial differentiation (S100β+ among BrdU+ cells) ([1]; Fmr1 KO mice): rescued both neuronal and astroglial differentiation; neuronal differentiation (NeuN+ among BrdU+ cells) ([1]; Fmr1 KO mice): rescued both neuronal and astroglial differentiation; astroglial differentiation (S100β+ among BrdU+ cells) ([1]; wildtype mice): without any significant effect on wildtype mice; neuronal differentiation (NeuN+ among BrdU+ cells) ([1]; wildtype mice): without any significant effect on wildtype mice; overall health and body weight [2]: no significant effect on overall health and body weight; cell proliferation (BrdU+ cells) ([3]; Fmr1 KO NPCs, 1 μM MK2206, 2 μM Nutlin-3, 1 μM RG7112, 4 μM YH239-EE): reduced the proliferation; cell proliferation (BrdU+ cells) ([3]; wildtype NPCs, 1 μM MK2206, 2 μM Nutlin-3): without a significant effect on wildtype NPCs; cell death and survival ([4]; Fmr1 KO NPCs): did not exhibit significant effects on cell death and survival; cell death and survival ([4]; wildtype NPCs): did not exhibit significant effects on cell death and survival; locomotor activity and anxiety (total distance, center/periphery entry ratio) [5]: no significant effect

From patent US10350204B2, “Methods for treating cognitive deficits associated with fragile X syndrome” (Wisconsin Alumni Research Foundation, priority 2015, dated 2019)
